Source: ChEMBL document CHEMBL4316596, “Antimicrobial Peptides with High Proteolytic Resistance for Combating Gram-Negative Bacteria” (J Med Chem, 2019)

What was measured:
[1] = tested on: Escherichia coli; experiment: Antimicrobial activity against Escherichia coli ATCC 25922 after 24 hrs by NCCLS-protocol based assay; format: functional; settings: ATCC 25922, 24 h
[2] = tested on: Escherichia coli; experiment: Antimicrobial activity against Escherichia coli UB1005 after 24 hrs by NCCLS-protocol based assay; format: functional; settings: UB1005, 24 h
[3] = tested on: Escherichia coli; experiment: Antimicrobial activity against Escherichia coli 078 after 24 hrs by NCCLS-protocol based assay; format: functional; settings: Escherichia coli, 078, 24 h
[4] = tested on: Escherichia coli; experiment: Antimicrobial activity against Escherichia coli K88 after 24 hrs by NCCLS-protocol based assay; format: functional; settings: K88, 24 h
[5] = tested on: Escherichia coli; experiment: Antimicrobial activity against Escherichia coli K99 after 24 hrs by NCCLS-protocol based assay; format: functional; settings: K99, 24 h
[6] = tested on: Pseudomonas aeruginosa; experiment: Antimicrobial activity against Pseudomonas aeruginosa ATCC 27853 after 24 hrs by NCCLS-protocol based assay; format: functional; settings: ATCC 27853, 24 h
[7] = tested on: Pseudomonas aeruginosa; experiment: Antimicrobial activity against Pseudomonas aeruginosa PAO1 after 24 hrs by NCCLS-protocol based assay; format: functional; settings: PAO1, 24 h
[8] = tested on: Pseudomonas aeruginosa; experiment: Antimicrobial activity against Pseudomonas aeruginosa CICC 21630 clinical isolates after 24 hrs by NCCLS-protocol based assay; format: functional; settings: CICC 21630, 24 h
[9] = tested on: Pseudomonas aeruginosa; experiment: Antimicrobial activity against Pseudomonas aeruginosa 26305 clinical isolates after 24 hrs by NCCLS-protocol based assay; format: functional; settings: Pseudomonas aeruginosa, 26305, 24 h
[10] = tested on: Pseudomonas aeruginosa; experiment: Antimicrobial activity against Pseudomonas aeruginosa CICC 21625 clinical isolates after 24 hrs by NCCLS-protocol based assay; format: functional; settings: CICC 21625, 24 h
[11] = tested on: Pseudomonas aeruginosa; experiment: Antimicrobial activity against Pseudomonas aeruginosa 25349 clinical isolates after 24 hrs by NCCLS-protocol based assay; format: functional; settings: Pseudomonas aeruginosa, 25349, 24 h
[12] = tested on: Salmonella typhimurium; experiment: Antimicrobial activity against Salmonella typhimurium ATCC 14028 after 24 hrs by NCCLS-protocol based assay; format: functional, Salmonella enterica subsp. enterica serovar Typhimurium; settings: Salmonella enterica, ATCC 14028, 24 h
[13] = tested on: Salmonella typhimurium; experiment: Antimicrobial activity against Salmonella typhimurium C7731 after 24 hrs by NCCLS-protocol based assay; format: functional, Salmonella enterica subsp. enterica serovar Typhimurium; settings: Salmonella enterica, C7731, 24 h
[14] = Antimicrobial activity against Salmonella pullorum C7913 after 24 hrs by NCCLS-protocol based assay; format: functional, Salmonella enterica subsp. enterica serovar Pullorum; settings: Salmonella enterica, C7913, 24 h
[15] = tested on: Acinetobacter baumannii; experiment: Antimicrobial activity against Acinetobacter baumannii after 24 hrs by NCCLS-protocol based assay; format: functional
[16] = tested on: Klebsiella pneumoniae; experiment: Antimicrobial activity against Klebsiella pneumoniae after 24 hrs by NCCLS-protocol based assay; format: functional
[17] = tested on: Escherichia coli; experiment: Bactericidal activity against Escherichia coli ATCC 25922 incubated for 4 hrs followed by culture spread on agar plates and cultured overnight; format: functional; settings: ATCC 25922, 4 h, read-out: MBC>99.9
[18] = tested on: Escherichia coli; experiment: Bactericidal activity against Escherichia coli UB1005 incubated for 4 hrs followed by culture spread on agar plates and cultured overnight; format: functional; settings: UB1005, 4 h, read-out: MBC>99.9
[19] = tested on: Escherichia coli; experiment: Bactericidal activity against Escherichia coli 078 incubated for 4 hrs followed by culture spread on agar plates and cultured overnight; format: functional; settings: Escherichia coli, 078, 4 h; read-out: MBC>99.9
[20] = tested on: Escherichia coli; experiment: Bactericidal activity against Escherichia coli K88 incubated for 4 hrs followed by culture spread on agar plates and cultured overnight; format: functional; settings: K88, 4 h, read-out: MBC>99.9
[21] = tested on: Escherichia coli; experiment: Bactericidal activity against Escherichia coli K99 incubated for 4 hrs followed by culture spread on agar plates and cultured overnight; format: functional; settings: K99, 4 h, read-out: MBC>99.9
[22] = tested on: Pseudomonas aeruginosa; experiment: Bactericidal activity against Pseudomonas aeruginosa ATCC 27853 incubated for 4 hrs followed by culture spread on agar plates and cultured overnight; format: functional; settings: ATCC 27853, 4 h, read-out: MBC>99.9
[23] = tested on: Pseudomonas aeruginosa; experiment: Bactericidal activity against Pseudomonas aeruginosa PAO1 incubated for 4 hrs followed by culture spread on agar plates and cultured overnight; format: functional; settings: PAO1, 4 h, read-out: MBC>99.9
[24] = tested on: Pseudomonas aeruginosa; experiment: Bactericidal activity against Pseudomonas aeruginosa CICC 21630 clinical isolates incubated for 4 hrs followed by culture spread on agar plates and cultured overnight; format: functional; settings: CICC 21630, 4 h, read-out: MBC>99.9
[25] = tested on: Pseudomonas aeruginosa; experiment: Bactericidal activity against Pseudomonas aeruginosa 26305 clinical isolates incubated for 4 hrs followed by culture spread on agar plates and cultured overnight; format: functional; settings: Pseudomonas aeruginosa, 26305, 4 h; read-out: MBC>99.9
[26] = tested on: Pseudomonas aeruginosa; experiment: Bactericidal activity against Pseudomonas aeruginosa CICC 21625 clinical isolates incubated for 4 hrs followed by culture spread on agar plates and cultured overnight; format: functional; settings: CICC 21625, 4 h, read-out: MBC>99.9
[27] = tested on: Pseudomonas aeruginosa; experiment: Bactericidal activity against Pseudomonas aeruginosa 25349 clinical isolates incubated for 4 hrs followed by culture spread on agar plates and cultured overnight; format: functional; settings: Pseudomonas aeruginosa, 25349, 4 h; read-out: MBC>99.9
[28] = tested on: Salmonella typhimurium; experiment: Bactericidal activity against Salmonella typhimurium ATCC 14028 incubated for 4 hrs followed by culture spread on agar plates and cultured overnight; format: functional, Salmonella enterica subsp. enterica serovar Typhimurium; settings: Salmonella enterica, ATCC 14028, 4 h; read-out: MBC>99.9
[29] = tested on: Salmonella typhimurium; experiment: Bactericidal activity against Salmonella typhimurium C7731 incubated for 4 hrs followed by culture spread on agar plates and cultured overnight; format: functional, Salmonella enterica subsp. enterica serovar Typhimurium; settings: Salmonella enterica, C7731, 4 h; read-out: MBC>99.9
[30] = Bactericidal activity against Salmonella pullorum C7913 incubated for 4 hrs followed by culture spread on agar plates and cultured overnight; format: functional, Salmonella enterica subsp. enterica serovar Pullorum; settings: Salmonella enterica, C7913, 4 h; read-out: MBC>99.9
[31] = tested on: Acinetobacter baumannii; experiment: Bactericidal activity against Acinetobacter baumannii incubated for 4 hrs followed by culture spread on agar plates and cultured overnight; format: functional; settings: read-out: MBC>99.9
[32] = tested on: Klebsiella pneumoniae; experiment: Bactericidal activity against Klebsiella pneumoniae incubated for 4 hrs followed by culture spread on agar plates and cultured overnight; format: functional; settings: read-out: MBC>99.9

Row | Substance | MIC95 [1] [µM] | MIC95 [2] [µM] | MIC95 [3] [µM] | MIC95 [4] [µM] | MIC95 [5] [µM] | MIC95 [6] [µM] | MIC95 [7] [µM] | MIC95 [8] [µM] | MIC95 [9] [µM] | MIC95 [10] [µM] | MIC95 [11] [µM] | MIC95 [12] [µM] | MIC95 [13] [µM] | MIC95 [14] [µM] | MIC95 [15] [µM] | MIC95 [16] [µM] | MBC [17] [µM] | MBC [18] [µM] | MBC [19] [µM] | MBC [20] [µM] | further results
1 | H-IKPIIKPIIKPIIKPIIKPIIKPIIKPIIKPI-NH2 | 16 | 4 | 32 | 1 | 2 | > 64 | > 64 | > 64 | > 64 | > 64 | > 64 | > 64 | > 64 | > 64 | 4 | 64 | 16 | 4 | > 64 | 2 | MBC [21]: 4 µM; MBC [22]: > 64 µM; MBC [23]: > 64 µM; MBC [24]: > 64 µM; MBC [25]: > 64 µM; MBC [26]: > 64 µM; MBC [27]: > 64 µM; MBC [28]: > 64 µM; MBC [29]: > 64 µM; MBC [30]: > 64 µM; MBC [31]: 4 µM; MBC [32]: > 64 µM
2 | H-IRPIIRPIIRPIIRPI-NH2 | 16 | 16 | 16 | 4 | 8 | > 64 | > 64 | > 64 | > 64 | > 64 | > 64 | 16 | 16 | 16 | 8 | 32 | 32 | 16 | 32 | 8 | MBC [21]: 16 µM; MBC [22]: > 64 µM; MBC [23]: > 64 µM; MBC [24]: > 64 µM; MBC [25]: > 64 µM; MBC [26]: > 64 µM; MBC [27]: > 64 µM; MBC [28]: 16 µM; MBC [29]: 32 µM; MBC [30]: 16 µM; MBC [31]: 8 µM; MBC [32]: 32 µM
